Where two headings read alike, the source gives them in different places.
Experiments:
[1] = cited from earlier work
hair loss = assay: Topical use for hair loss prevention, effectiveness in patients; type: in vivo, human; settings: same amount of minoxidil
Text: […]. […] […]. After about thirty months of use, about half of the new hair growth falls out. Thus, while the user has somewhat more hair than originally, the user has less hair than […].
Minoxidil without a penetration enhancer (as available in ROGAINE™ topical minoxidil U.S.P.) produces a different kind of hair than does minoxidil used with a penetration enhancer.
Further, it is known in the art that minoxidil users experience a sudden drop in hair thickness after about thirty months of usage. I thus have sought the time at which my compounds have a sudden drop in effectiveness. […] That this function is abnormal is confirmed by its drop in effectiveness after thirty months; such a drop in efficacy indicates a “tolerance” acquired against the intervention, rather than the maintenance of a permanent, healthy state.
Using the specific formulations disclosed here, I have observed decreases in hair loss, and a consequent statistically significant increase in the amount of healthy mature hair, after 4.0-4.5 months on the frontal scalp. On the crown and back of the head, by contrast, I have observed statistically significant results after 4.5-5.0 months. The frontal scalp may react faster because it enjoys greater vascularization and blood flow than the other parts of the scalp.
I have found several surprising things about testosterone blockers. […]

scalp hair follicles = settings: in vivo; cited from earlier work
age related hair loss = settings: stump-tail macaque monkeys; cited from earlier work

CCC(CCCCC1CCC2CC(=O)CC12)OC (stereo not shown) [Cioteronel, hexahydro-4-(5-methoxyheptyl)-2(1H)-pentalenone]
solubility, in words ([1]; in lipid and relatively non-polar solvents): soluble

Nc1cc(N2CCCCC2)nc(N)[n+]1[O-] [minoxidil, 6-(1-piperidinyl)-2,4-pyrimidinediamaine 3-oxide]
share of patients on whom the preparation is effective (hair loss): 8%

CC(C)(C)NC(=O)[C@H]1CC[C@H]2[C@@H]3CC[C@H]4NC(=O)C=C[C@]4(C)[C@H]3CC[C@]12C [finasteride]
effect on scalp hair follicles / balding process (scalp hair follicles): miniaturizes scalp hair follicles, reversing the balding process

CN(C)C(=O)C1CCC2C3CCC4N(C)C(=O)CCC4(C)C3CCC12C (stereo not drawn) [17b-N,N,- dimethylcarbamoyl-4-methyl-4-aza-5α-androstan-3-one]
age related hair loss versus untreated monkeys (age related hair loss): significantly less age related hair loss

CC(=O)[C@H]1CC[C@H]2[C@@H]3CCC4=CC(=O)CC[C@]4(C)[C@H]3CC[C@]12C [Progesterone, pregn-4-ene-3, 20-dione]
solubility, in words ([1]; in alcohol, acetone, dioxane, and concentrated sulfuric acid): soluble
solubility, in words ([1]; in vegetable oils): sparingly soluble
solubility, in words ([1]; in water): insoluble
